Entries after “also recorded” stand apart in the source; their conditions may differ. Where two headings read alike, the source gives them in different places.
What was measured:
[1] = system: trypomastigote forms of T. cruzi (Y strain); parameters: method as in PMID 18688888; conditions: in vitro, read-out: IC50 against trypomastigote forms of T. cruzi; cited from earlier work
[2] = system: Trypanosoma brucei rhodesiense (bloodstream trypomastigotes, STIB 900 strain); experiment: In vitro activity against Trypanosoma brucei rhodesiense; type: cell-based; conditions: for IC50: Trypanosoma brucei, read-out: IC50 T. b. rhodesiense; for SI T. b. rhodesiense: selectivity index determined with L6 cells
Experimental: (§1) As part of an extensive screening of Asteraceae from the Brazilian “Cerrado”, extracts obtained from the leaves of Aldama discolor with solvents of different polarity (n-hexane (Hex), dichloromethane (DCM), ethyl acetate (EtOAc) and methanol (MeOH)) were tested for in vitro activity against Trypanosoma brucei rhodesiense (bloodstream trypomastigotes), T. cruzi (intracellular amastigotes), Leishmania donovani (axenic amastigotes) and Plasmodium falciparum (intraerythrocytic forms). Each extract was tested at two concentrations, 2 and 10 μ g/mL, for growth inhibitory activity (% GI) against the various parasites.
(§2) In vitro tests for the activity against Trypanosoma brucei rhodesiense (bloodstream trypomastigotes, STIB 900 strain), T. cruzi (amastigotes, Tulahuen C4 strain), Leishmania donovani (amastigotes, MHOM-ET-67/L82 strain), Plasmodium falciparum (intraerythrocytic forms, NF54 IEF strain), as well as for cytotoxicity against mammalian cells (L6-cell-line from rat-skeletal myoblasts) were performed according to established protocols as reported previously, e.g, in [33].

[3] = system: Leishmania donovani (amastigotes, MHOM-ET-67/L82 strain); experiment: In vitro activity against Leishmania donovani; type: cell-based; conditions: for IC50: Leishmania donovani, MHOM-ET-67/L82 strain, amastigotes, geometric mean of 2 experiments ±SE (values marked a: only one experiment), read-out: IC50 L. donovani; for SI L. donovani: selectivity index determined with L6 cells
Experimental: as §1, §2

[4] = system: T. cruzi (amastigotes, Tulahuen C4 strain); experiment: In vitro activity against T. cruzi; type: cell-based, Trypanosoma cruzi; conditions: for IC50: Trypanosoma cruzi, Tulahuen C4 strain, amastigotes, geometric mean of 2 experiments ±SE (values marked a: only one experiment); for SI T. cruzi: selectivity index determined with L6 cells
Experimental: as §1, §2

[5] = system: Plasmodium falciparum (intraerythrocytic forms, NF54 IEF strain); experiment: In vitro activity against Plasmodium falciparum; type: cell-based; conditions: for SI P. falciparum: selectivity index determined with L6 cells
Experimental: as §1, §2

[6] = Cytotoxicity against mammalian cells; type: cell-based, rat
Experimental: as §2

T.b. brucei = system: T.b. brucei; parameters: method as in PMID 21843897; conditions: cited from earlier work
P. falciparum K-1 strain = system: P. falciparum K-1 strain; parameters: method as in PMID 16309313; conditions: read-out: IC50 antiplasmodial activity; cited from earlier work
P. falciparum strain 3D7 = system: P. falciparum strain 3D7; parameters: method as in PMID 15104493; conditions: read-out: IC50 in vitro antiplasmodial effect; cited from earlier work
erythrocytes = system: erythrocytes; parameters: method as in PMID 15104493; conditions: cited from earlier work
T. b. rhodesiense = system: T. b. rhodesiense; parameters: method as in PMID 24165182; conditions: in words; cited from earlier work
[7] = STIB 900 strain, trypomastigotes, geometric mean of 2 experiments ±SE (values marked a: only one experiment)
[8] = NF54 strain, intra-erythrocytic stages, geometric mean of 2 experiments ±SE (values marked a: only one experiment), read-out: IC50 P. falciparum
[9] = Plasmodium falciparum, NF54, NF54 strain, intra-erythrocytic stages, geometric mean of 2 experiments ±SE (values marked a: only one experiment), read-out: IC50 P. falciparum
[10] = L6-cell-line from rat-skeletal myoblasts, geometric mean of 2 experiments ±SE, read-out: IC50 L6 Cells (cytotoxicity)

3β-acetoxy-ent-8(14),15-pimaradiene
IC50 [1]: 149 µM

C=C1C[C@@]23CC[C@@H]4[C@](C)(CO)[C@H](O)CC[C@@]4(C)[C@@H]2CC[C@@H]1C3 (single isomer, unassigned; ent-3) [Compound 1, ent-3-α-hydroxy-kaur-16-en-18-ol]
IC50 [2, 7]: 20.1 ± 0.5 µM | SI T. b. rhodesiense [2]: 2 | IC50 [3]: 2.5 ± 1.5 µM | SI L. donovani [3]: 16 | IC50 [4]: 55.6 µM | SI T. cruzi [4]: 1 | IC50 [5, 8]: 3.5 ± 0.2 µM | IC50 [5, 9]: 3.54 µM | SI P. falciparum [5]: 11 | IC50 [6, 10]: 40.2 ± 5.5 µM

C=CC1(C)CCC2=C(C1)C(=O)CC1C(C)(CO)CCCC21C (single isomer, unassigned; ent-7) [Compound 2, ent-7-oxo-pimara-8,15-diene-18-ol]
IC50 [2, 7]: 24.3 µM | SI T. b. rhodesiense [2]: 2 | IC50 [3]: 18.2 µM | SI L. donovani [3]: 3 | IC50 [4]: 15.4 µM | SI T. cruzi [4]: 3 | IC50 [5, 8]: 3.8 µM | IC50 [5, 9]: 3.85 µM | SI P. falciparum [5]: 13 | IC50 ([6]; rat): 48.3 ± 5.9 µM

C=CC1(C)CCC2=C(C1)C(=O)CC1C2(C)CCC(O)C1(C)C (single isomer, unassigned; ent-7) [Compound 3, ent-7-oxo-pimara-8,15-diene-3β-ol]
IC50 [3]: 13.8 µM | SI L. donovani [3]: 5 | IC50 [4]: 19.4 µM | SI T. cruzi [4]: 4 | IC50 [5, 9]: 16.5 ± 4.9 µM | SI P. falciparum [5]: 4 | IC50 ([6]; rat): 69.3 ± 10.9 µM

C=C[C@@]1(C)CC[C@@H]2[C@](O)(CC[C@@H]3[C@](C)(CO)CCC[C@]32C)C1 (single isomer, unassigned; ent-15) [ent-15-pimarene-8β,19-diol]
IC50 [1]: 116 µM

C=C1C(=O)C23CCC4C(C)(C)CCCC4(C)C2C(O)CC1C3 (single isomer, unassigned; ent-16) [11α-Hydroxy-ent-16-kauren-15-one]
SI (T.b. brucei; cytotoxicity determined with a human embryonic cell line (MRC-5)): 3.2 | IC50 (T.b. brucei; read-out: IC50 against T.b. brucei): 0.761 µM

C=CC1(C)C=C2CCC3C(C)(C)CC(O)C(O)C3(C)C2C(O)C1 (centres unmarked) [1,2,11-trihydroxypimara-8(14),15-diene]
IC50 (P. falciparum K-1 strain): 27.4 µM

C=CC1(C)C=C2CCC3C(C)(C)CCC(O)C3(C)C2C(O)C1 (centres unmarked) [1,11-dihydroxypimara-8(14),15-diene]
IC50 (P. falciparum K-1 strain): 9.8 µM

C=C[C@@]1(C)CCC2=C(CC[C@H]3C(C)(C)[C@@H](O)CC[C@]23C)C1 [8(9),15-isopimaradien-3β-ol]
IC50 (P. falciparum strain 3D7): 24.5 µM

C=C[C@]1(C)C=C2CC[C@H]3[C@](C)(CO)[C@@H](O)CC[C@]3(C)[C@H]2CC1 [8(14),15-isopimaradien-3β,19-diol]
effect on erythrocytes (erythrocytes): induced echinocytosis at low concentrations and caused pronounced cell lysis

C=CC1(C)C=C2C(O)CC3C4(C)COC(C4)CC3(C)C2CC1 (stereo not drawn) [Compound 4, ent-2S,4S-2,19-epoxy-pimara-8(14),15-diene-7β-ol]
IC50 [2, 7]: 47.3 ± 4.1 µM | SI T. b. rhodesiense [2]: 2 | IC50 [3]: 21.9 µM | SI L. donovani [3]: 5 | IC50 [4]: 58.9 µM | SI T. cruzi [4]: 2 | IC50 [5, 9]: 16.1 ± 6.1 µM | SI P. falciparum [5]: 6 | IC50 ([6]; rat): 101 ± 45.7 µM

C=C1C(=O)O[C@@H]2/C=C(/CO)C3=CC(=O)[C@@](C)(C[C@@H](OC(=O)/C(C)=C/C)[C@@H]12)O3 [Compound 5, budlein A]
activity against T. b. rhodesiense in vitro (T. b. rhodesiense): strong anti-T. b. rhodesiense activity; also recorded: exceptionally strong activity

O=C(Cn1ccnc1[N+](=O)[O-])NCc1ccccc1 [benznidazole, reference compound]
IC50 [4]: 0.653 ± 0.135 µM

CCN(CC)CCCC(C)Nc1ccnc2cc(Cl)ccc12 (centres unmarked) [chloroquine, reference compound]
IC50 ([5]; Plasmodium falciparum, NF54, read-out: IC50 P. falciparum): 0.003 ± 0.001 µM

Nc1nc(N)nc(Nc2ccc([As]3SCC(CO)S3)cc2)n1 (centres unmarked) [melarsoprol, reference compound]
IC50 [2]: 0.025 ± 0.0005 µM

CCCCCCCCCCCCCCCCOP(=O)([O-])OCC[N+](C)(C)C [miltefosine, reference compound]
IC50 [3]: 0.049 ± 0.001 µM

COc1cc([C@@H]2c3cc4c(cc3[C@H](O)[C@H]3COC(=O)[C@H]23)OCO4)cc(OC)c1OC [podophyllotoxin, reference compound]
IC50 [6, 10]: 0.008 µM
